From EP1793002A1 (priority 2004, dated 2006)
Read-outs that look alike come from different tables or passages of the source.

How the values were obtained:
[1] = system: luciferin/luciferase luminescent reactions; details: for Max RLU / Max Time: 1 mM in ATP luminescent reagent; for Max RLU%: relative to the reaction system without pyrophosphoric acid (no PPi)
Description: To a 5 ml aliquot of this reagent, pyrophosphoric acid (Wako Purechemical Industries, Ltd.) was added to give a final concentration of 1 mM. Subsequently, ATP standard reagent (ATP concentration = 1 x 10^-12 M) included in the kit was dispensed into a microtiter plate at 100 µl/well. […] The same operations were performed on ATP luminescent reagent without pyrophosphoric acid. Further, ATP luminescent reagent to which potassium pyrophosphate or sodium pyrophosphate was added at a final concentration of 1 mM instead of pyrophosphoric acid was also prepared, and the above-described operations were performed.

[2] = target: T1, luciferase standard enzyme (Photinus pyralis, UniProt P08659); details: 2 mM; for Max RLU / Max Time: with 2 mM sodium diethyldithiocarbamate, 10% glycerol; for Max RLU%: relative to the system without pyrophosphoric acid (no PPi)
Description: A "luciferase luminescent reagent" containing 20 mM tricine, 1.07 mM (MgCO3)4Mg(OH)2.5H2O, 2.67 mM magnesium sulfate, 0.1 mM EDTA, 470 µM luciferin and 530 µM adenosine triphosphate (ATP), pH 7.8 was prepared in accordance with the formulation described in the instructions included in "PicaGene Luminescent Kit" (Toyo Ink Manufacturing Co., Ltd.; product No. PGL100), except that 270 µM CoA and 33.3 mM DTT (thiol reagents) mentioned in the instructions were not added. […] In both reagents thus prepared, glycerol (final concentration: 10%) was allowed to co-exist in order to promote stabilization of luciferase enzyme.
A luciferase enzyme solution (100 ng/ml) was prepared by diluting "luciferase standard enzyme (10 µg/ml)" included in "PicaGene Luminescent Kit" (Toyo Ink Manufacturing Co., Ltd.; product No. PGL100) with "PicaGene Cell Lysis Reagent LUC" (Toyo Ink Manufacturing Co., Ltd.; product No. PGC50). 10 µl of this luciferase enzyme solution was taken into a cuvette of a luminometer (Berthold, LB9506). First, 100 µl of the "luciferase luminescent reagent" prepared above was added to the enzyme solution. Immediately after the addition, the resulting mixed solution was loaded onto the luminometer, and the quantity of light emitted (RLU/sec) was measured for the initial 200 seconds at intervals of 25 seconds. Then, the quantity of light emitted was measured in the same manner using the "luciferase luminescent reagent (+improvement)".

[3] = target: T1, luciferase standard enzyme; details: 1.5mM PPiK; relative to w/o pyrophosphoric acid
Description: A "luciferase luminescent reagent" containing 20 mM tricine, 1.07 mM (MgCO3)4Mg(OH)2.5H2O, 2.67 mM magnesium sulfate, 0.1 mM EDTA, 33.3 mM DTT, 470 µM luciferin, 270 µM CoA and 530 µM adenosine triphosphate (ATP), pH 7.8 was prepared in accordance with the formulation described in the instructions included in "PicaGene Luminescent Kit" (Toyo Ink Manufacturing Co., Ltd.; product No. PGL100). […] Further, glycerol and DTT were allowed to co-exist in each of the above luminescent reagents at final concentrations of 10% and 1 mM, respectively, in order to promote the stabilization of luciferase enzyme.
A luciferase enzyme solution (100 ng/ml) was prepared by diluting "luciferase standard enzyme (10 µg/ml)" included in "PicaGene Luminescent Kit" (Toyo Ink Manufacturing Co., Ltd.; product No. PGL100) with "PicaGene Cell Lysis Reagent LUC" (Toyo Ink Manufacturing Co., Ltd.; product No. PGC50). 10 µl of this luciferase enzyme solution was dispensed into each well of a microtiter plate. Subsequently, 100 µl of the above-described luminescent reagent was added to the enzyme solution in each well. […] Since luciferin/luciferase luminescent reactions are greatly affected by temperature, all operations and measurements with a luminometer were performed in a thermostatic chamber set at 23°C.
Then, the above-described operations were repeated. […]

luciferase enzyme = test: ATP assay, time course of light emission with ATP luminescent reagent (Example 3, microtiter plate, 23°C); type: biochemical; details: 2 mM, added as organic sulfur reagent
Description: Then, the above-described operations were repeated.

T1 sequence (P08659 whole entry): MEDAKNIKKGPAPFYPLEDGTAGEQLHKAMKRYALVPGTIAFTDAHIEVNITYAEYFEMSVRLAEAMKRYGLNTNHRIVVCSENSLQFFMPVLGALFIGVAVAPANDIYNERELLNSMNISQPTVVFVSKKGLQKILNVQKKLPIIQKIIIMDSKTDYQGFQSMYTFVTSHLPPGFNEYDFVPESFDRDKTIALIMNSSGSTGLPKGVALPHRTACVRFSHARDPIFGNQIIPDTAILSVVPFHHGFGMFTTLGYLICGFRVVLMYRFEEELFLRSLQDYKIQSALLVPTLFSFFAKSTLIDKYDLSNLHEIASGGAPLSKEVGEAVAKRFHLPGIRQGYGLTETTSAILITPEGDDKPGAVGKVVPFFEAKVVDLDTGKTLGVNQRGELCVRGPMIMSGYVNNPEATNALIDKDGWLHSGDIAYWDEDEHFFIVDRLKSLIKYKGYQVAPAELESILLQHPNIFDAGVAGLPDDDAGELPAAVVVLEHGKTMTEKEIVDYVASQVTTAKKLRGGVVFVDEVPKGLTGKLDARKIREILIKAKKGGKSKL

| SMILES | Max RLU [1] [RLU] | Max Time [1] [min] | initial luminescence ([1]; 1 mM, relative to the initial luminescence with the ATP luminescent reagent) [%] | Max RLU% ([1]; 1 mM) [%] | time at which the quantity of light emitted reached the maximum value ([1]; after the start of the measurement) [min] | Max RLU [2] [RLU] | Max Time [2] [min] | Max RLU% [2] [%] | Max RLU% [3] [%] | effect on the stabilization of luminescent reactions (luciferase enzyme) |
| --- | --- | --- | --- | --- | --- | --- | --- | --- | --- | --- |
| O=P(O)(O)OP(=O)(O)O [PPi, pyrophosphoric acid] | 30874.3 | 5 | ≤ 50 | 48.9 | 5 | 67904.5 | 6 | 55.4 | – | – |
| O=P([O-])([O-])OP(=O)([O-])[O-].[K+].[K+].[K+].[K+] [PPiK, potassium pyrophosphate] | 16800.3 | 15 | – | 26.6 | – | 31448.0 | 12 | 25.6 | 27.5 | – |
| O=P([O-])([O-])OP(=O)([O-])[O-].[Na+].[Na+].[Na+].[Na+] [PPiNa, sodium pyrophosphate] | 15275.5 | 25 | – | 24.2 | – | 30290.8 | 12 | 24.7 | – | – |
| CCN(CC)C(=S)[S-].[Na+] [organic sulfur reagent, sodium diethyldithiocarbamate] | – | – | – | – | – | – | – | – | – | no effect on the stabilization of luminescent reactions |
